Square brackets hold non-standard residues; d marks the D form. Peptide text beside a SMILES is read from it. * marks the point of attachment. Palmitoyl = CCCCCCCCCCCCCCCC(=O)*; X1 = NCCNCC(CNCCN)C(=O)*
Biological target: T1, human NTS1R (Homo sapiens, UniProt P30989)
T1 construct: Cell membrane homogenates from WiDr cells were collected; host or cells: WiDr human colorectal adenocarcinoma cells (membrane homogenates)
Assay: Competition binding against [^125I]I-Tyr^3-NT in WiDr cell membranes
Conditions: for IC50: displacement of [^125I]I-Tyr^3-NT, WiDr cell membranes, 1 h at 22 °C, mean ± sd
Procedure: Cell membrane homogenates from WiDr cells were collected and stored in Tris/EDTA (10 mM Tris, 0.1 mM EDTA, pH 7.4) solution at −80 °C, as previously described. On the day of the experiment, the aliquots thereof were thawed, combined, and diluted in cold binding buffer (BB: 50 mM HEPES, 5.5 mM MgCl2, 0.1 mg/mL bacitracin, 1% w/v BSA, pH 7.4). A dilution series of each test peptide (10^−12–10^−5 M) and a fresh solution of [^125I]I-Tyr^3-NT (~40,000 cpm/70 μL, 214 pM) were prepared and kept on ice. In each RIA tube per placed on ice (in triplicate for each concentration point), the following ice-cold solutions were added: test peptide solution (30 μL), the [^125I]I-Tyr^3-NT radioligand (70 μL), and membrane homogenate (200 μL). Tubes were incubated under constant stirring for 1 h at 22 °C in an Incubator-Orbital Shaker (MPM Instr. Srl; Bernareggio, Italy). The incubation was terminated by placing the tubes on ice and adding ice-cold washing buffer (10 mM HEPES, 150 mM NaCl, pH 7.4). Samples were rapidly passed through Whatman GF/B filters (presoaked for 1 h in BB) on a 48-sample Brandel Cell Harvester (Adi Hassel Ingenieur Büro, Munich, Germany). Separate filters were measured for radioactivity on the γ-counter, and the half maximal inhibition concentration (IC50) was calculated applying a non-linear one-site model (GraphPad Prism Software 6.0, San Diego, CA, USA).

T1 sequence (P30989 whole entry): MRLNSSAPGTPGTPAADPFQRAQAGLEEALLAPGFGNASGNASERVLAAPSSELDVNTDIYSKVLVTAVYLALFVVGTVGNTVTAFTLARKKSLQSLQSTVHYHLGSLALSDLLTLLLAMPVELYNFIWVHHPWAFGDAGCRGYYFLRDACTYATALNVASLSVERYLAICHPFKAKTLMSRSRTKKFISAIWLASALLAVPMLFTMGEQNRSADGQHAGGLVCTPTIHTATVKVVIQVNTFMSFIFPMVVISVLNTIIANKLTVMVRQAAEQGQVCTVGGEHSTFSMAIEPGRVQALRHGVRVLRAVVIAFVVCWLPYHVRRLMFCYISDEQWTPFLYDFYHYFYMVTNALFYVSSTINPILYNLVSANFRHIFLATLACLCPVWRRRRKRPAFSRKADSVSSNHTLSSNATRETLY

Row | Compound | IC50 [nM] | drop of binding affinity to the NTS1R compared to DT1 (by a power of)
1 | CCCCCCCCCCCCCCCC(=O)NCCCC[C@H](NC(=O)C(CNCCN)CNCCN)C(=O)N[C@@H](CCCNC(=N)N)C(=O)N[C@@H](CCCNC(=N)N)C(=O)N1CCC[C@H]1C(=O)N[C@@H](Cc1ccc(O)cc1)C(=O)N[C@H](C(=O)N[C@@H](CC(C)C)C(=O)O)[C@@H](C)CC [DT9] (X1-K(Palmitoyl)RRPYIL-OH) | 0.89 ± 0.7 | 
2 | CC[C@H](C)[C@H](NC(=O)[C@H](Cc1ccc(O)cc1)NC(=O)[C@@H]1CCCN1C(=O)[C@H](CCCNC(=N)N)NC(=O)[C@H](CCCNC(=N)N)NC(=O)CNC(=O)C(CNCCN)CNCCN)C(=O)N[C@@H](CC(C)C)C(=O)N[C@H](CC(N)=O)C(=O)O [DT7, N4-Gly-Arg-Arg-Pro-Tyr-Ile-Leu-DAsn-OH] (X1-GRRPYIL[dN]-OH) | 29.1 ± 4.11 | ~100

Reference: paper PMC10459693, “Toward Stability Enhancement of NTS1R-Targeted Radioligands: Structural Interventions on [^99mTc]Tc-DT1” (Pharmaceutics, 2023)
